Experiments:
[1] = target: Cathepsin L (Homo sapiens, UniProt P07711); test: Cathepsin L enzyme assay; assay type: biochemical; conditions: Ki by Morrison equation; pH 5.5, substrate Z-Phe-Arg-Amc; read-out: Cat L
Text: Two wells contained DMSO only for controls.
Velocity was converted to μM/sec.

[2] = target: Cathepsin B (Homo sapiens, UniProt P07858); test: Cathepsin B enzyme assay; conditions: Cat B (μM), Ki by Morrison equation; pH 6.0, substrate Z-Phe-Arg-Amc
[3] = target: Calpain; test: Calpain enzyme assay; assay type: biochemical; conditions: Ki by Morrison equation; pH 7.5, 5 mM CaCl2

Chain of Cathepsin L (P07711 114-333, species assumed): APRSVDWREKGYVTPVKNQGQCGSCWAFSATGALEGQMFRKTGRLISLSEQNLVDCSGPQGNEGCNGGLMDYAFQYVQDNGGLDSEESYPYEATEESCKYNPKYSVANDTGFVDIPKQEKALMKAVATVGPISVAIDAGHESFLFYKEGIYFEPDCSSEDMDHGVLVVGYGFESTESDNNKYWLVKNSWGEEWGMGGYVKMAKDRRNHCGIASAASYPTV

Structure (SMILES) | Ki [1] | Ki [2] | Ki [3]
CCC(C)C(NC(=O)C(=O)C(C)NC(=O)Cc1ccccc1)C(=O)NC(C)(C)C(=O)O (stereo not shown) [PHELIX132, 2-methyl-2-(3-methyl-2-(2-oxo-3-(2-phenylacetamido)butanamido)pentanamido)propanoic acid] | 134 µM | 702 µM | –
CC[C@H](C)[C@H](NC(=O)C(=O)C(C)NC(=O)Cc1ccccc1)C(=O)N1CCC[C@H]1C(=O)O (stereo partly shown) [PHELIX138, (2-oxo-3-(2-phenylacetamido)butanoyl)isoleucylproline] | 69.8 µM | 27.8 µM | –
CCC(C)C(NC(=O)C(=O)C(C)(C)NC(=O)Cc1ccccc1)C(=O)NC(C)(C)C(=O)O (stereo not shown) [PHELIX139, 2-methyl-2-(3-methyl-2-(3-methyl-2-oxo-3-(2-phenylacetamido)butanamido)pentanamido)propanoic acid] | 57.4 µM | 1130 µM | –
CC[C@H](C)[C@H](NC(=O)C(=O)C(C)NC(=O)C(Cc1ccccc1)NC(=O)Cc1ccccc1)C(=O)N1CCC[C@H]1C(=O)O (stereo partly shown) [PHELIX155, (2-oxo-3-(3-phenyl-2-(2-phenylacetamido)propanamido)butanoyl)isoleucylproline] | 0.3 µM | 0.0215 µM | –
CC(NC(=O)C(Cc1ccccc1)NC(=O)Cc1ccccc1)C(=O)C(=O)NC(Cc1ccc2ccccc2c1)C(=O)NC(C)(C)C(=O)O (stereo not shown) [PHELIX158, 12-benzyl-2,2,9-trimethyl-5-(naphthalen-2-ylmethyl)-4,7,8,11,14-pentaoxo-15-phenyl-3,6,10,13-tetraazapentadecanoic acid] | 0.141 µM | 0.439 µM | –
CCC(C)C(NC(=O)C(=O)C(C)NC(=O)C(Cc1ccccc1)NC(=O)Cc1ccc2ccccc2c1)C(=O)NC(C)(C)C(=O)O (stereo not shown) [PHELIX161, 12-benzyl-5-(sec-butyl)-2,2,9-trimethyl-15-(naphthalen-2-yl)-4,7,8,11,14-pentaoxo-3,6,10,13-tetraazapentadecanoic acid] | 1.99 µM | 0.0549 µM | –
CC(NC(=O)C(Cc1ccccc1)NC(=O)Cc1ccccc1)C(=O)C(=O)NC(Cc1cccc2ccccc12)C(=O)NC(C)(C)C(=O)O (stereo not shown) [PHELIX162, 12-benzyl-2,2,9-trimethyl-5-(naphthalen-1-ylmethyl)-4,7,8,11,14-pentaoxo-15-phenyl-3,6,10,13-tetraazapentadecanoic acid] | 0.402 µM | 0.03 µM | –
CCC(C)C(NC(=O)C(=O)C(C)NC(=O)C(Cc1ccccc1)NC(=O)Cc1cccc2ccccc12)C(=O)NC(C)(C)C(=O)O (stereo not shown) [PHELIX163, 12-benzyl-5-(sec-butyl)-2,2,9-trimethyl-15-(naphthalen-1-yl)-4,7,8,11,14-pentaoxo-3,6,10,13-tetraazapentadecanoic acid] | 0.429 µM | 0.0485 µM | –
CCC(C)C(NC(=O)C(=O)C(C)NC(=O)C(Cc1ccc(-c2ccccc2)cc1)NC(=O)Cc1ccccc1)C(=O)NC(C)(C)C(=O)O (stereo not shown) [PHELIX165, 12-([1,1′-biphenyl]-4-ylmethyl)-5-(sec-butyl)-2,2,9-trimethyl-4,7,8,11,14-pentaoxo-15-phenyl-3,6,10,13-tetraazapentadecanoic acid] | 0.453 µM | 0.0736 µM | –
CCC(C)C(NC(=O)C(=O)C(C)NC(=O)C(Cc1ccc(C(C)(C)C)cc1)NC(=O)Cc1ccccc1)C(=O)NC(C)(C)C(=O)O (stereo not shown) [PHELIX167, 5-(sec-butyl)-12-(4-(tert-butyl)benzyl)-2,2,9-trimethyl-4,7,8,11,14-pentaoxo-15-phenyl-3,6,10,13-tetraazapentadecanoic acid] | 2.6 µM | 0.273 µM | –
CCC(C)C(NC(=O)C(=O)C(C)NC(=O)C(Cc1ccc(C(F)(F)F)cc1)NC(=O)Cc1ccccc1)C(=O)NC(C)(C)C(=O)O (stereo not shown) [PHELIX168, 5-(sec-butyl)-2,2,9-trimethyl-4,7,8,11,14-pentaoxo-15-phenyl-12-(4-(trifluoro-methyl)benzyl)-3,6,10,13-tetraazapentadecanoic acid] | 1.27 µM | 0.519 µM | –
CCC(C)C(NC(=O)C(=O)C(C)NC(=O)C(Cc1ccc(F)cc1)NC(=O)Cc1ccccc1)C(=O)NC(C)(C)C(=O)O (stereo not shown) [PHELIX172, 5-(sec-butyl)-12-(4-fluorobenzyl)-2,2,9-trimethyl-4,7,8,11,14-pentaoxo-15-phenyl-3,6,10,13-tetraazapentadecanoic acid] | 0.52 µM | 0.0746 µM | –
CC[C@H](C)[C@H](NC(=O)C(=O)C(Cc1ccccc1)NC(=O)C(Cc1ccccc1)NC(=O)Cc1ccccc1)C(=O)N1CSCC1C(=O)O (stereo partly shown) [PHELIX174, 3-((2-oxo-4-phenyl-3-(3-phenyl-2-(2-phenylacetamido)propanamido)butanoyl)isoleucyl)thiazolidine-4-carboxylic acid] | 0.461 µM | 0.157 µM | –
CCC(C)C(NC(=O)C(=O)C(C)NC(=O)C(Cc1cccc(C)c1)NC(=O)Cc1ccccc1)C(=O)NC(C)(C)C(=O)O (stereo not shown) [PHELIX175, 5-(sec-butyl)-2,2,9-trimethyl-12-(3-methylbenzyl)-4,7,8,11,14-pentaoxo-15-phenyl-3,6,10,13-tetraazapentadecanoic acid] | 0.108 µM | 0.0069 µM | –
CCC(C)C(NC(=O)C(CC(C)C)NC(=O)OCc1ccccc1)C(=O)C(=O)N1CC(C(=O)NCc2cncnc2)C1 (stereo not shown) [PHELIX362, benzyl (4-methyl-1-((4-methyl-1,2-dioxo-1-(3-((pyrimidin-5-ylmethyl)carbamoyl)azetidin-1-yl)hexan-3-yl)amino)-1-oxopentan-2-yl)carbamate] | 0.157 µM | – | 0.63 µM
CCC(C)C(NC(=O)C(CC(C)C)NC(=O)OCc1ccccc1)C(=O)C(=O)N1CC(C(=O)NCc2ccc3ccccc3c2)C1 (stereo not shown) [PHELIX363, benzyl (4-methyl-1-((4-methyl-1-(3-((naphthalen-2-ylmethyl)carbamoyl)azetidin-1-yl)-1,2-dioxohexan-3-yl)amino)-1-oxopentan-2-yl)carbamate] | 0.0194 µM | – | 0.178 µM
CCC(C)C(NC(=O)C(CC(C)C)NC(=O)OCc1ccccc1)C(=O)C(=O)N1CC(C(=O)NCc2n[nH]c3c2CCC3)C1 (stereo not shown) [PHELIX364, benzyl (4-methyl-1-((4-methyl-1,2-dioxo-1-(3-(((1,4,5,6-tetrahydrocyclopenta[c]pyrazol-3-yl)methyl)carbamoyl)azetidin-1-yl)hexan-3-yl)amino)-1-oxopentan-2-yl)carbamate] | 0.117 µM | – | 0.0321 µM
CCC(C)C(NC(=O)C(CC(C)C)NC(=O)Cc1cncnc1)C(=O)C(=O)NCC(=O)NC(Cc1ccc2ccccc2c1)C(N)=O (stereo not shown) [PHELIX365, N-(2-((1-amino-3-(naphthalen-2-yl)-1-oxopropan-2-yl)amino)-2-oxoethyl)-4-methyl-3-(4-methyl-2-(2-(pyrimidin-5-yl)acetamido)pentanamido)-2-oxohexanamide] | 0.0179 µM | – | 0.00621 µM
CCC(C)C(NC(=O)C(CC(C)C)NC(=O)OCc1ccccc1)C(=O)C(=O)N1CC(C(=O)NCc2ccc(C(=N)N)cc2)C1 (stereo not shown) [PHELIX366, benzyl (1-((1-(3-((4-carbamimidoylbenzyl)carbamoyl)azetidin-1-yl)-4-methyl-1,2-dioxohexan-3-yl)amino)-4-methyl-1-oxopentan-2-yl)carbamate] | 0.137 µM | – | 0.442 µM
CC[C@H](C)C(NC(=O)[C@H](CC(C)C)NC(=O)OCc1ccccc1)C(=O)C(=O)N1CC(C(=O)O)C1 (stereo partly shown) [PHELIX367, 1-(3-(2-(((benzyloxy)carbonyl)amino)-4-methylpentanamido)-4-methyl-2-oxohexanoyl)azetidine-3-carboxylic acid] | 0.906 µM | – | > 1 µM
